Patent US20250276973A1, “CRYSTAL OF 7H-PYRROLO[2,3-D]PYRIMIDINE-4-AMINE DERIVATIVE” (TAIHO PHARMACEUTICAL CO., LTD., priority 2022, published 2025)
Read-outs that look alike come from different tables or passages of the source.

Assays:
[1] = Plasma concentration determination test after oral administration; type: in vivo; conditions: male beagle dogs, gelatin capsule, 20 mg/kg in terms of free form, hypochlorhydria conditions, three dogs
Description: The Compound (1) in free form (type II crystal), the type III crystal of Compound (1) with one equivalent of succinic acid, and the type I crystal of Compound (1) with one equivalent of sorbic acid obtained in the examples were tested for plasma concentrations in male beagle dogs after oral administration under hypochlorhydria conditions.
In order to select three male beagle dogs for the test, plasma concentrations were determined in five male beagle dogs under hypochlorhydria conditions after administration in a solution form and administration in a capsule-filled form. Three dogs with larger differences in AUClast (area under the plasma concentration-time curve from 0 hours after administration to the point at which the final concentration can be calculated by the linear trapezoidal method before Tmax and by the log-trapezoidal method after Tmax) and Cmax (maximum plasma concentration) between the administration in the solution form and the administration in the capsule-filled form were selected. Subsequently, tests were conducted to determine plasma concentrations in them after oral administration of the Compound (1) in free form (type II crystal), the type III crystal of Compound (1) with one equivalent of succinic acid, and the type I crystal of Compound (1) with one equivalent of sorbic acid in capsule-filled forms. The following procedures were employed for the preparation of a liquid dosage, capsule filling, and animal experiments.
Compound (1) in free form was dissolved in a 20% HP-β-CD solution containing 0.1N hydrochloric acid to prepare a solution of 20 mg/5 mL. Compound (1) in free form (type II crystal), the type III crystal of Compound (1) with one equivalent of succinic acid, and the type I crystal of Compound (1) with one equivalent of sorbic acid were each filled into a gelatin capsule at 20 mg/kg in terms of the molecular weight of Compound (1) (free form).
The male beagle dogs selected for the study were fasted starting between 11:00 a.m. to 12:00 p.m. on the day before Compound (1) was administered and fed after blood was collected 8 hours after the administration of the compound. The dogs were not allowed to drink water from 30 minutes before to 2 hours after the administration of the compound, but were allowed to drink freely at other time.
Intravenous administration of atropine (atropine sulfate injection 0.5 mg “Fuso”) at a dose of 0.02 mg/kg was followed by intramuscular administration of pentagastrin at a dose of 0.01 mg/kg 30 minutes prior to the administration of the compound. Thirty minutes after the administration of atropine, the dogs were orally force-fed a capsule filled with the compound, encouraged to self-swallow the capsule with 5 mL of distilled water, and further orally force-fed 50 mL of distilled water using a catheter. Alternatively, the compound dissolved in liquid dosage was administered orally via a catheter at a dose of 20 mg/5 mL/kg, and the catheter was immediately rinsed with 10 mL of distilled water.
Pentagastrin was again intramuscularly administered at 0.01 mg/kg 15 minutes and 1 hour after the administration of the compound.
Before and after (0.25, 0.5, 1, 2, 4, 6, 8, and 24 hours after) the administration, the person in charge of collecting blood held the dog's forelimb to distend the blood vessel using a clothespin or the like. Then, the blood collection site was disinfected with alcohol cotton, and about 0.2 mL of blood was collected using a heparinized syringe and needle. After the blood was drawn, the puncture site was pressed with a cotton pad to adequately stop bleeding. The collected blood samples were ice-cooled, and plasma was isolated by centrifugation as soon as possible. The isolated plasma was immediately frozen on dry ice and then stored frozen in a freezer set at −80° C. […]

[2] = Solid stability test (4 weeks of storage at 80° C., closed system; HPLC); type: physicochemical; conditions: for Chemical purity after 4 weeks of storage at 80° C. / Solid stability (result in words): 80° C. (closed system), 4 weeks; for Chemical purity after 4 weeks of storage at 80° C.: glass bottle; for Chemical purity after 4 weeks of storage at 80° C. / Chemical purity before storage: HPLC; for Solid stability (result in words): related substances by HPLC; for Change (chemical purity): after 4 weeks at 80° C. versus before storage; for Chemical purity before storage: UV 220
Description: The solid stability of the type II crystal of Compound (1) in free form, the type III crystal of Compound (1) in free form, the type VII crystal of Compound (1) in free form, and the type VIII crystal of Compound (1) in free form obtained in the examples, reference example, and comparative example were evaluated after 4 weeks of storage by the following procedure. • Storage conditions: 80° C. (closed system) (HIFLEX (high-temperature storage chamber manufactured by ETAC)) • Storage period: 4 weeks • Storage volume: Approximately 30 mg • Storage container: Glass bottle
Changes in the mass of the related substances (the amounts of detected substances other than Compound (1)) were analyzed by HPLC according to the following method. Approximately 8 mg of each sample was weighed and dissolved in I mL of a chloroform-methanol mixture (1:1 v/v). Fifty μL of this solution was measured and diluted with 950 μL of an acetonitrile-water mixture (7:3), and 5 μL of the resulting solution was accurately measured and used as the sample for the analysis.
The mass of the related substances in the sample solution was determined by HPLC analysis. The instrument, including data processing, was handled in accordance with the method and procedure indicated for each instrument. • Column: InertSustainSwift C18 (2.1×50 mm, 1.9 μm) manufactured by GL Sciences • UV detection: […] • Column temperature: 40° C. • Flow rate: 0.3 mL/min • Sample cooler: 10° C. • Sample concentration: 0.1 mg/mL • Mobile phase A: 10 mmol/L phosphate buffer (pH 6.8)/acetonitrile (95:5) mixture • Mobile phase B: Acetonitrile • The gradients are shown in Table 4.
The solid stability of the type III crystal of Compound (1) with succinic acid, the type I crystal of Compound (1) with citric acid, the type IV crystal of Compound (1) with citric acid, the type I crystal of Compound (1) with sorbic acid, and the type I crystal of Compound (1) with phosphoric acid obtained in the examples, reference example, and comparative examples were evaluated after 4 weeks of storage. The evaluation method, storage, and measurement conditions were as described in Test Example 1.

[3] = Dynamic vapor sorption (DVS) test; type: physicochemical; conditions: 25° C.; for Hygroscopicity (result in words): 5 to 95% RH; for Weight increase under 95% relative humidity: 95% RH
Description: Vapor sorption tests were performed using the type II crystal of Compound (1) in free form, the type III crystal of Compound (1) in free form, the type VII crystal of Compound (1) in free form, and the type VIII crystal of Compound (1) in free form obtained in the examples, reference example, and comparative example.
Vapor sorption tests were conducted under the following conditions.
Approximately 10 mg of the sample was filled into a specialized quartz holder to continuously measure and record the weight of the sample at each humidity was under the following conditions. The instrument, including data processing, was handled in accordance with the method and procedure indicated for each instrument. • Instrument: VTI-SA+(manufactured by TA Instruments) • Drying temperature: 60° C. • Heating rate: 1° C./min • Equilibration of drying: Confirmation of no more than 0.01 wt % decrease in 5 minutes within a period not exceeding 300 minutes • Measurement temperature: 25° C. • Equilibration of humidification: Confirmation of no more than 0.01 wt % increase in 5 minutes within a period not exceeding 120 minutes • Relative humidity program: Increase from 5 to 95% RH in increments of 5% RH, and decrease from 95% to 5% RH in increments of 5% RH. • Changes in the weight over the range of the measurement conditions obtained in these tests are shown in FIGS. 9 through 12.
Vapor sorption tests were performed using the type III crystal of Compound (1) with succinic acid, the type I crystal of Compound (1) with citric acid, the type IV crystal of Compound (1) with citric acid, the type I crystal of Compound (1) with sorbic acid, and the type I crystal of Compound (1) with phosphoric acid obtained in the examples, reference example, and comparative examples.
Vapor sorption tests were conducted under the same conditions as in Test Example 2.

[4] = male, beagle, dog, plasma, po, 20 mg/kg

Row | Compound | AUC(0-t) [1, 4] [µM·h] | Cmax [1, 4] [nM] | tmax ([1]; male, beagle, dog, plasma, po, 20 mg/kg, read-out: tmax) [h] | Chemical purity after 4 weeks of storage at 80° C. [2] [%] | Solid stability (result in words) [2] | Change (chemical purity) [2] | Chemical purity before storage [2] [%] | Hygroscopicity (result in words) [3] | Weight increase under 95% relative humidity [3] [%] | AUClast [1] [µM·h] | Cmax [1] [nM] | tmax [1] [h]
1 | C#Cc1c(-c2cnc3ccccc3c2)c2c(N)ncnc2n1C12CCC(NC(=O)c3cnc(C)cn3)(CC1)C2 [N-(4-(4-amino-6-ethynyl-5-(quinolin-3-yl)-7H-pyrrolo[2,3-d]pyrimidin-7-yl)bicyclo[2.2.1]heptan-1-yl)-5-methylpyrazine-2-carboxamide] | 13 ± 4 | 1260 ± 90 | 4 | – | – | – | – | – | – | – | – | –
2 | C#Cc1c(-c2cnc3ccccc3c2)c2c(N)ncnc2n1C12CCC(NC(=O)c3cnc(C)cn3)(CC1)C2 [Type I crystal of Compound (1) with sorbic acid] [N-(4-(4-amino-6-ethynyl-5-(quinolin-3-yl)-7H-pyrrolo[2,3-d]pyrimidin-7-yl)bicyclo[2.2.1]heptan-1-yl)-5-methylpyrazine-2-carboxamide] | – | – | – | 99.72 | extremely stable crystals with almost no increase in the related substances | −0.02% | 99.74 | hardly hygroscopic | 0.26 | 18.1 ± 13.1 | 1680 ± 880 | 6.0 ± 2.0
3 | C#Cc1c(-c2cnc3ccccc3c2)c2c(N)ncnc2n1C12CCC(NC(=O)c3cnc(C)cn3)(CC1)C2 [Type III crystal of Compound (1) with succinic acid] [N-(4-(4-amino-6-ethynyl-5-(quinolin-3-yl)-7H-pyrrolo[2,3-d]pyrimidin-7-yl)bicyclo[2.2.1]heptan-1-yl)-5-methylpyrazine-2-carboxamide] | – | – | – | 99.63 | extremely stable crystals with almost no increase in the related substances | +0.01% | 99.62 | hardly hygroscopic | 0.28 | 25.1 ± 8.4 | 2240 ± 750 | 5.3 ± 1.2
